Source: patent US20140294873A1, “SMALL MOLECULE SCREEN FOR INHIBITORS OF NFAT: AP-1: DNA INTERACTIONS” (CHILDREN'S MEDICAL CENTER CORPORATION, priority 2011, published 2014)
Entries after “also recorded” stand apart in the source; their conditions may differ.

T1: NFAT:DNA complex (Homo sapiens, UniProt Q13469)
T1 construct: The NFAT DBD containing a His tag was cloned into the pQE vector; His tag (MRGSHHHHHH leader) (N); made in house
T1 sequence (Q13469 with tags, fused parts or gaps): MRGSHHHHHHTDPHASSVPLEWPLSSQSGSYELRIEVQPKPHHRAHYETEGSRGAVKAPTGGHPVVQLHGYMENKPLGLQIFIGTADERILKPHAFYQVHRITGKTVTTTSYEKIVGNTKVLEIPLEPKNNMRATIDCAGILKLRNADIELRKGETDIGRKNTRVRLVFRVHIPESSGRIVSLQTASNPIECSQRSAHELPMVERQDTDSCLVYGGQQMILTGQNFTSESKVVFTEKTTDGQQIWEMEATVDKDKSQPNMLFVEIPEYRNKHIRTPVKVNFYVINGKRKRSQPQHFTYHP

T2: NFAT DNA-binding domain (NFAT-DBD) (UniProt Q13469 SEQ:15-300)
T2 chain: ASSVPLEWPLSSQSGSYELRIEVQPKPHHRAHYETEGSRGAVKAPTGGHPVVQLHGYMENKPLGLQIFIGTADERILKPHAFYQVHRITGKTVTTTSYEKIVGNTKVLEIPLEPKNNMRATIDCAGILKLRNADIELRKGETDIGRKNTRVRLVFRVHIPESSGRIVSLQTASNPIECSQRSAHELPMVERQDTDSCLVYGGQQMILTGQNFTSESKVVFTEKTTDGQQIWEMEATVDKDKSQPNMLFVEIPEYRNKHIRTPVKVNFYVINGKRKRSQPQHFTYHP


Columns and labels:
[1] = test system: IFNγ production in 2D2 CD4 T cells; test: IFNγ production after compound treatment during Th1 activation; type: cell-based, mouse; details: 7.8 μM during activation under Th1 conditions, compared to DMSO
Experimental: (§1) T cell activation assays: Mouse CD4 T cells were isolated using the Dynal CD4 T cell positive isolation kit (Invitrogen) and activated with 1 μg/mL αCD3/αCD28 for 48-60 h under non-polarizing or Th1-conditions (10 ng/mL IL-12 and 10 μg/mL αIL-4). CD4CD25+ T cells were depleted from purified CD4 T cells using a CD25 microbead MACS kit (Miltenyi Biotech), and CD4CD25− T cells were activated with αCD3/αCD28 in the presence of 3 ng/mL TGF[…] (iTreg-polarizing conditions).
(§2) For restimulation, T cells from primary cultures were rested for 3-4 d, washed, counted and stimulated for 4 h with 10 nM PMA and varied concentrations of ionomycin; where indicated, CsA was added to cells at a final concentration of 2 μM 20′ before activation while compounds were added 45-60′ before activation. Brefeldin A was added at 10 μg/mL for the final 2-2.5 h of stimulation. T cells were fixed with 4% paraformaldehyde, permeabilized in saponin buffer and stained for intracellular cytokines; data were collected on a FACSCalibur instrument (BD Biosciences).

[2] = test system: proinflammatory mediator mRNA in Th1 cells; test: Real time RT-PCR of T cells used for EAE induction; type: cell-based, mouse; details: for IL-2 mRNA transcript / IL-24 transcript levels / IP-10 transcript levels: compared to DMSO controls
Excerpt: (§3) Real time RT-PCR: Total RNA was isolated from cell pellets using the RNeasy kit (Qiagen) followed by first-strand synthesis using SuperScript III (Invitrogen). Synthesized cDNA was amplified using the FastStart Universal SYBRGreen Master Mix (Roche). PCR data was collected using the StepOne Plus Real-Time PCR System (Applied Biosystems) and gene expression normalized to an endogenous GAPDH control using the ΔΔCT method; primer sequences have been described elsewhere.

CD4 T cells = test: Cytotoxicity / live cell numbers in restimulated CD4 T cells; type: cell-based, mouse; details: for cell numbers within the live cell gate: 4 h restimulation with compound; for cytotoxicity: at the concentrations tested
Experimental: as §2

NFAT:AP-1:DNA complex = target: T3, NFAT:AP-1:DNA complex (Homo sapiens, UniProt P01100+P05412+Q13469, C154S/C269S); test: EMSA, NFAT:AP-1:DNA complex formation; type: binding; details: for assembly of the ternary complex: 6.25 mM compound; for inhibition of formation of the NFAT:AP-1:DNA complex: 32P end-labeled ARRE2, compound added before probe; for inhibition of NFAT:AP-1:DNA complex formation: compound in the 0-300 μM range
T3 construct: The NFAT DBD containing a His tag was cloned into the pQE vector; Fos and Jun bZIP domains (each encompassing 63 amino acids) were cloned into pETa vectors; His tag ([…] leader) (N); made in house; host or cells: E. coli Codon Plus BL21 (DE3) RIL for Fos and Jun; bacterial expression from a pQE vector for NFAT DBD
T3 sequence (P01100 with tags, fused parts or gaps C154S, one chain of several): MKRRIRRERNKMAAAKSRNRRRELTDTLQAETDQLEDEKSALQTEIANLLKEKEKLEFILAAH
T3 sequence (P05412 with tags, fused parts or gaps C269S, one chain of several): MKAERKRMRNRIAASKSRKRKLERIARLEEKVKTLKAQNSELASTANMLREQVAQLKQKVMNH
Experimental: (§4) EMSAs: Probe labeling: Annealed double-stranded ARRE2 was end-labeled using T4 polynucleotide kinase by incubating 50-100 ng DNA with 20 μCi 32P-γATP (Perkin Elmer) at 37° C. for 1 h followed by heat inactivation of the enzyme at 65° C. for 15′ and purification of radiolabeled ARRE2 using MicroSpin G-25 columns (GE Biosciences).
(§5) Binding reactions were set up in EMSA buffer (10 mM HEPES pH=7.5, 120 mM NaCl, 10% glycerol, 0.8 mg/mL BSA, 1 mM DTT) in the presence of complete protease inhibitor (Roche). Compounds CID 2740816 (1668 P02) and CID 5713461 (1661 N20) (Ryan Scientific) were resuspended in DMSO and incubated with 20 nM NFAT and 10 nM AP-1 for 10′ followed by addition of ˜2.5 nM radiolabeled ARRE2 probe. Reactions were then incubated for 30′ at room temperature and loaded on a 4% polyacrylamide gel (pre-run for 30-45′).

NFAT:DNA complex = target: T1, NFAT:DNA complex; test: EMSA, NFAT:DNA complex; type: binding; details: high concentration (6.25 mM)
Experimental: as §4, §5

[3] = test system: IL-2 and TNFα production in activated CD4 T cells; test: Intracellular cytokine FACS in restimulated CD4 T cells; type: cell-based, mouse; details: for inhibition of IL-2/TNFα production: restimulation with αCD3/αCD28 instead of PMA/ionomycin
Experimental: as §1, §2

Foxp3 = test: Treg-associated gene upregulation under iTreg-polarizing conditions (real time RT-PCR); type: cell-based, mouse; details: activation in the presence of TGFβ (iTreg polarizing)
Experimental: as §1, §3

CD69 = CD69 upregulation in restimulated CD4 T cells; type: cell-based, mouse; details: 4 h activation period, also at high concentrations
Experimental: as §2

IL-17 in CD4 T cells = test: IL-17 levels after compound treatment during primary Th17 differentiation; type: cell-based, mouse
EAE in C57BL/6 mice = test: Passive transfer EAE with compound-treated 2D2 Th1 cells; type: in vivo, mouse
Experimental: EAE induction: CD4 T cells from 2D2 transgenic mice were activated with 0.2 μg/mL αCD3/αCD28 under Th1-polarizing conditions for 48-60 h in the presence of DMSO or compound as indicated. T cells were rested and expanded for 2 d followed by restimulation with 0.1 μg/mL αCD3/αCD28 for 24 h in the presence of DMSO or compound. Cells were resuspended in 1×PBS and injected intraperitoneally into female 8 wk old C57BL/6 mice, 1.5 million T cells per mouse. Mice were monitored for weight loss and development of disease symptoms using a standard clinical scale: 0, healthy; 1, flaccid tail; 2, ataxia/paresis of hind limbs; 3, paralysis of hind limbs; 4, tetraparalysis; 5, moribund or death W.

[4] = target: T2, NFAT DNA-binding domain (NFAT-DBD); test: EMSA; details: tags: His tag (MRGSHHHH..), pQE vector, E. coli; label: 32P 5'-end
[5] = 10 nM PMA, ionomycin 100 nM or 300 nM
[6] = 10 nM PMA/100 nM ionomycin, 4 h
[7] = Th1 cells treated with 7.8 μM compound, IP transfer
[8] = compared to 1668 P02- or DMSO-treated Th1 transfer groups

Molecule | levels of IFNγ production [1] | IL-2 mRNA transcript [2] | IL-24 transcript levels [2] | IP-10 transcript levels [2] | cell numbers within the live cell gate (CD4 T cells) | cytotoxicity (CD4 T cells) | assembly of the ternary complex (NFAT:AP-1:DNA complex) | inhibition of formation of the NFAT:AP-1:DNA complex (NFAT:AP-1:DNA complex) | inhibition of NFAT:AP-1:DNA complex formation (NFAT:AP-1:DNA complex) | effect on the NFAT:DNA complex (NFAT:DNA complex) | inhibition of IL-2 and TNFα production [3, 6] | inhibition of IL-2 and TNFα production ([3]; 10 nM PMA/500 nM ionomycin) | inhibition of IL-2/TNFα production [3] | upregulation of Treg-associated genes, notably Foxp3 (Foxp3) | upregulation of CD69 (CD69) | IL-17 levels upon restimulation (IL-17 in CD4 T cells) | other results
N#C/C(=N/Nc1ccc2c(c1)OCO2)C(=O)N1CCCC1 [1661 N20] | slight decrease | highly significant reduction | remained unchanged | actually higher | no apparent change; also recorded: unchanged | neither compound appeared to be cytotoxic | almost abrogate | modestly inhibit | modest inhibition | unaffected; also recorded: neither compound had an inhibitory effect | inhibit production | inhibitory | acute inhibition | did not affect | not affected; also recorded: unaffected | remained unchanged | GM-CSF transcript levels ([2]; relative to DMSO controls): significantly reduced; levels of IFNγ mRNA ([2]; relative to DMSO controls): significantly reduced; reduction in MFI of IL-2 [3, 5]: ≤ 50%; reduction in MFI of TNFα [3, 5]: ≤ 50%; kinetics of disease development (EAE in C57BL/6 mice; [7]): clearly delayed kinetics; severity of clinical symptoms of EAE (EAE in C57BL/6 mice; [7]): reduced severity; also recorded: decreased severity; mean clinical score (EAE in C57BL/6 mice; [8]): significantly lower; percentage weight loss (EAE in C57BL/6 mice; [8]): significantly lower
O=C1CCCC(=O)C1=NNc1cc(C(F)(F)F)ccc1OCC(F)(F)F [1668 P02] | slight decrease | not statistically significant | remained unchanged | actually higher | no apparent change; also recorded: unchanged | neither compound appeared to be cytotoxic | almost abrogate | modestly inhibit | modest inhibition | unaffected; also recorded: neither compound had an inhibitory effect | inhibit production | to a lesser extent | acute inhibition | did not affect | not affected; also recorded: unaffected | remained unchanged | disease curve relative to DMSO-treated Th1 transfer group (EAE in C57BL/6 mice; Th1 cells treated with compound, IP transfer): overlapping disease curves
ARRE2 probe, 32P (dsDNA) DNA 1: CCTTCTGTATGAAACAAATTTTCCTCTTTG DNA 2: CAAAGAGGAAAATTTGTTTCATACAGAAGG |  |  |  |  |  |  |  |  |  |  |  |  |  |  |  |  | binding result [4]: binds
